Test results reported in paper PMC3434127, “Insights into Phosphate Cooperativity and Influence of Substrate Modifications on Binding and Catalysis of Hexameric Purine Nucleoside Phosphorylases” (PLoS ONE, 2012).

Target: T1, BsPNP233 (Bacillus subtilis, UniProt O34925)
T1 construct: gene deoD; full length, 233 residues, N-terminal His-tag kept (eight tag residues seen in one crystal form), recombinant from E. coli, homohexamer (D3); active site at dimer interface
T1 sequence (O34925 1-233): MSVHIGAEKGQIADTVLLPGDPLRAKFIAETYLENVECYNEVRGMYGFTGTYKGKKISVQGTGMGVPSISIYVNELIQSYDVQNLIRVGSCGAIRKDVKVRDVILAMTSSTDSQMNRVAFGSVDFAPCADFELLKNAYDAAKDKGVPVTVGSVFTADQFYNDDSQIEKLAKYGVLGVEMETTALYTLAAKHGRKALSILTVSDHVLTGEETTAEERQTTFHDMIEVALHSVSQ
Test: X-ray crystal structure (soaked crystal)
Assay type: binding

[1] = crystals grown in 0.1 M sodium acetate pH 4.6, 3.2 M NaCl, 5% glycerol, 291 K, nucleoside site

Structure (SMILES)	X-ray crystal structure (soaked crystal) [1]	also measured
Nc1nc2c(ncn2COC(CO)CO)c(=O)[nH]1 [GCV, ganciclovir]	GCV binds to the nucleoside binding site of BsPNP233	
Nc1ncnc2c1ccn2[C@@H]1O[C@H](CO)[C@@H](O)[C@H]1O [TBN, tubercidin]	TBN presented an interaction mode very similar to that seen for the natural substrate adenosine	
Nc1nc2c(ncn2COCCO)c(=O)[nH]1 [ACV, aciclovir]		X-ray crystal structure (soaked crystal) (crystals grown in 0.1 M sodium acetate pH 4.6, 3.2 M NaCl, 5% glycerol, 291 K, nucleoside site, two conformations of the acyclic chain, half-occupancy phosphate modelled): Aciclovir binds to the BsPNP233 nucleoside binding site
O=c1[nH]cnc2nc[nH]c12 [Hyp, hypoxanthine]		X-ray crystal structure (soaked crystal) (crystals grown in 0.1 M sodium acetate pH 4.6, 3.2 M NaCl, 5% glycerol, 291 K, purine-binding site, glycerol in ribose site): crystal structures of BsPNP233 in complex with hypoxanthine (Hyp) and adenine (Ade)
Nc1ncnc2[nH]cnc12 [Ade, adenine]		X-ray crystal structure (soaked crystal) (purine-binding site, solved without (4DAO) and with sulfate (form I, 4D8V)): The BsPNP233-Ade binary complex was solved with (BsPNP233-Ade-SO4) or without (BsPNP233-Ade) sulfate ion
Nc1ncnc2c1ncn2[C@@H]1O[C@H](CO)[C@@H](O)[C@H]1O [Ado, adenosine]	The base moiety of adenosine (Ado) binds to the BsPNP233 active site	
Nc1nc(Cl)c2ncn([C@@H]3O[C@H](CO)[C@@H](O)[C@H]3O)c2n1 [Cl-Guo, 6-chloroguanosine]	The molecule Cl-Guo displays a similar binding mode to that observed for dGuo	
Nc1nc2c(nc(Br)n2[C@@H]2O[C@H](CO)[C@@H](O)[C@H]2O)c(=O)[nH]1 [Br-Guo, 8-bromoguanosine]	The ribosyl moiety of Br-Guo presents a typical C4′–endo conformation and binds to the active site	
Nc1nc(F)nc2c1ncn2[C@@H]1O[C@H](CO)[C@@H](O)[C@H]1O [F-Ado, 2-fluoradenosine]	The crystal structure of BsPNP233-(F-Ado) complex had two BsPNP233 subunits per asymmetric unit	
